Source: patent US8178506B2, “Oligomeric compounds and compositions for use in modulation of small non-coding RNAs” (Regulus Therapeutics Inc., priority 2003, dated 2012)
In the oligonucleotide strings, read from the 5' end, every base follows the letter of its sugar. An asterisk marks phosphorothioate; unmarked linkages are phosphodiester. Other units and linkages are bracketed, terminal groups are in braces. A string of capitals states the bases alone. e = 2'-O-(2-methoxyethyl) (MOE); [5mC] = 5-methylcytosine

Tested on: IL-12 mRNA
Test: IL-12 mRNA in LPS-activated primary murine macrophages
Type: cell-based, mouse
Conditions: normalized to LPS-treated cells without oligomeric compound; for IL-12 mRNA expression, −IFN % UTC: 300 nM oligomeric compound and LPS, no IFN-gamma pretreatment, single experiment; for IL-12 mRNA expression, +IFN % UTC: 300 nM oligomeric compound, stimulation with IFN-gamma and LPS, average of 2 experiments

Substance | IL-12 mRNA expression, −IFN % UTC [% UTC] | IL-12 mRNA expression, +IFN % UTC [% UTC]
327928 (antisense eA*eA*e[5mC]*e[5mC]*eG*eA*eT*eT*eT*e[5mC]*eA*eG*eA*eT*eG*eG*eT*eG*e[5mC]*eT*eA*eG) [compound 327928] | 201 | 61
327931 (antisense eA*eA*e[5mC]*e[5mC]*eA*eT*eA*e[5mC]*eA*eA*e[5mC]*e[5mC]*eT*eA*e[5mC]*eT*eA*e[5mC]*e[5mC]*eT*e[5mC]*eA) [compound 327931] | 105 | 48
327956 (antisense e[5mC]*eA*e[5mC]*eA*eG*eT*eT*eG*e[5mC]*e[5mC]*eA*eG*e[5mC]*eT*eG*eA*eG*eA*eT*eT*eA) [compound 327956] | 212 | 59
327967 (antisense eA*e[5mC]*eT*eG*eT*eA*e[5mC]*eA*eA*eA*e[5mC]*eT*eA*e[5mC]*eT*eA*e[5mC]*e[5mC]*eT*e[5mC]*eA) [compound 327967] | 203 | 43
328105 (antisense e[5mC]*e[5mC]*eT*e[5mC]*eA*eA*eT*eT*eA*eT*eT*eG*eG*eA*eA*eA*eT*e[5mC]*eA*e[5mC]*eA) [compound 328105] | 108 | 57
328110 (antisense eG*eA*eT*eA*eA*eA*eG*e[5mC]*e[5mC]*eA*eA*eT*eA*eA*eA*e[5mC]*eT*eG*eT*e[5mC]*eA) [compound 328110] | 221 | 8
328117 (antisense eT*e[5mC]*e[5mC]*eA*e[5mC]*eA*eA*eA*eG*e[5mC]*eT*eG*eA*eA*e[5mC]*eA*eT*eG*eT*e[5mC]*eT) [compound 328117] | 162 | 72
328123 (antisense eT*eT*eA*e[5mC]*eA*eG*eG*eT*eG*e[5mC]*eT*eG*e[5mC]*eA*eA*e[5mC]*eT*eG*eG*eA*eA) [compound 328123] | 176 | 14
328129 (antisense eA*eG*e[5mC]*e[5mC]*eT*e[5mC]*e[5mC]*eT*eT*e[5mC]*eT*eT*e[5mC]*eT*e[5mC]*eG*eT*eA*e[5mC]*eT*eA) [compound 328129] | 87 | 10
328133 (eT*eG*eA*eA*eG*eG*eT*eT*e[5mC]*eG*eG*eA*eG*eA*eT*eA*eG*eG*e[5mC]*eT*eA; anti-miR) [compound 328133] | 165 | 62
328137 (eG*eT*eA*eA*eG*e[5mC]*eG*e[5mC]*eA*eG*e[5mC]*eT*e[5mC]*e[5mC]*eA*e[5mC]*eA*eG*eG*e[5mC]*eT; anti-miR) [compound 328137] | 213 | 12
328138 (eG*eA*eG*e[5mC]*eT*eG*e[5mC]*eT*e[5mC]*eA*eG*e[5mC]*eT*eG*eG*e[5mC]*e[5mC]*eA*eT*e[5mC]*eA; anti-miR) [compound 328138] | 277 | 31
342673 (antisense eA*eG*eA*e[5mC]*eT*eA*eG*e[5mC]*eG*eG*eT*eA*eT*e[5mC]*eT*eT*eT*eA*eT*e[5mC]*e[5mC]*e[5mC]) [compound 342673] | 91 | –
